Measured values published in BigSolDB 2.1.

c1ccc2c(c1)Cc1ccccc1-2
solubility (mole fraction)
Conditions	in acetone	in benzene	in chloroform	in isobutanol	in n-propanol	in toluene
283 K	0.0445	0.0883	0.0893	0.00425	0.00817	0.063
288 K	0.049	0.0982	0.102	0.00544	0.00903	0.0809
293 K	0.0558	0.109	0.114	0.00691	0.0115	0.0967
298 K	0.0687	0.126	0.132	–	–	0.124
298.4 K	–	–	–	0.00902	0.0134	–
303 K	–	–	–	–	–	0.152
303.1 K	0.0793	–	0.153	–	–	–
303.2 K	–	0.143	–	0.0121	0.0163	–
308 K	–	0.158	–	0.0156	0.0188	0.195
308.2 K	0.0907	–	0.173	–	–	–
313 K	0.104	0.183	0.195	0.0192	0.0215	0.25
318 K	0.12	0.209	0.22	0.023	0.0248	0.3
323 K	0.14	0.235	0.25	0.0267	0.0289	0.37
